Data from US12162904B2, “Mannose derivative and application thereof” (priority 2021, dated 2024).

Columns and labels:
[1] = Stability in mouse serum at 37° C. (radiochemical purity by TLC); assay type: in vitro ADME; details: 4 h
Method: (§1) The radiochemical purity of ^99mTc-CN7DM was determined by TLC after being placed in normal saline at room temperature and in mouse serum at 37° C. for 4 h.

[2] = Stability in normal saline at room temperature (radiochemical purity by TLC); assay type: physicochemical; details: 4 h
Method: as §1

[3] = system: mice bearing S180 tumors; assay: Biodistribution determination in tumor-bearing mice; assay type: in vivo; details: for Blood uptake / Bone uptake / Heart uptake / Kidney uptake / Liver uptake / Lung uptake / Muscle uptake / Small intestine uptake / Spleen uptake / Thyroid gland uptake / Tumor uptake: n = 5, mean ± SD; for Tumor uptake: S180 tumor
Method: 0.1 mL of the ^99mTc-CN7DM labeling solution (370 kBq) was injected into mice bearing S180 tumors through the tail vein. After recording the injection time, the mice were subjected to sacrificing by cervical […] at different time points of 30 min and 120 min (5 mice were executed at each time), dissecting, taking out tissues or organs of interest such as heart, liver, lungs, kidneys, spleen, bone, muscles, small intestine, blood and tumors. A radioactivity count of each of the tissues or organs was measured by the γ-counter, and uptake value of each of the tissues or organs in % ID/g was obtained by converting a mass of each of the tissues or organs.

[4] = Determination of lipid-water partition coefficient (n-octanol/PBS); assay type: physicochemical; details: n-octanol / PBS 0.025 M, pH 7.4
Method: To a 5 mL centrifuge tube were added 100 μL of a ^99mTc-CN7DM solution with a radioactivity of 10 μCi, 1 mL of n-octanol and 900 μL of phosphate buffered saline (PBS) (0.025 M and pH 7.4). The mixture was vortexed at a rotation speed of 2,500 rpm for 3 min, subjected to standing for stratification, and centrifuged at 9,000 rpm in a centrifuge for 5 min. Three samples (each for 100 μL) were taken from each of the two phases, and determined by a γ-counter for the radioactivity counts.

[5] = 30 min after tail vein injection
[6] = 120 min after tail vein injection

radiochemical purity after standing (stability) [1]: greater than 90%
radiochemical purity after standing (stability) [2]: greater than 90%
Tumor/Blood ratio [3, 5]: 3.79
Tumor/Muscle ratio [3, 5]: 3.25
Blood uptake [3, 5]: 1.61 ± 0.17 % ID/g
Bone uptake [3, 5]: 1.41 ± 0.17 % ID/g
Heart uptake [3, 5]: 2.08 ± 0.26 % ID/g
Kidney uptake [3, 5]: 6.22 ± 0.91 % ID/g
Liver uptake [3, 5]: 2.91 ± 0.23 % ID/g
Lung uptake [3, 5]: 1.86 ± 0.19 % ID/g
Muscle uptake [3, 5]: 1.88 ± 0.16 % ID/g
Small intestine uptake [3, 5]: 1.05 ± 0.20 % ID/g
Spleen uptake [3, 5]: 1.23 ± 0.11 % ID/g
Thyroid gland uptake [3, 5]: 0.04 ± 0.01 % ID
Tumor/Blood ratio [3, 6]: 63.48
Tumor/Muscle ratio [3, 6]: 6.18
Blood uptake [3, 6]: 0.09 ± 0.02 % ID/g
Bone uptake [3, 6]: 0.76 ± 0.17 % ID/g
Heart uptake [3, 6]: 1.40 ± 0.14 % ID/g
Kidney uptake [3, 6]: 3.12 ± 0.82 % ID/g
Liver uptake [3, 6]: 2.13 ± 0.46 % ID/g
Lung uptake [3, 6]: 0.76 ± 0.20 % ID/g
Muscle uptake [3, 6]: 0.96 ± 0.12 % ID/g
Small intestine uptake [3, 6]: 0.42 ± 0.13 % ID/g
Spleen uptake [3, 6]: 0.80 ± 0.15 % ID/g
Thyroid gland uptake [3, 6]: 0.02 ± 0.00 % ID
Tumor uptake [3, 5]: 6.11 ± 0.76 % ID/g
Tumor uptake [3, 6]: 5.92 ± 0.30 % ID/g
log P (lipid-water partition coefficient) [4]: −3.15±0.06
Compound: [99Tc+].[C-]#[N+]CCCCCCCC(=O)NC1C(O)OC(CO)C(O)C1O.[C-]#[N+]CCCCCCCC(=O)NC1C(O)OC(CO)C(O)C1O.[C-]#[N+]CCCCCCCC(=O)NC1C(O)OC(CO)C(O)C1O.[C-]#[N+]CCCCCCCC(=O)NC1C(O)OC(CO)C(O)C1O.[C-]#[N+]CCCCCCCC(=O)NC1C(O)OC(CO)C(O)C1O.[C-]#[N+]CCCCCCCC(=O)NC1C(O)OC(CO)C(O)C1O (centres unmarked) [^99mTc-CN7DM]
